Measurements as given in patent US12630544B2, “Compound, α-synuclein aggregate binder, and use thereof” (NATIONAL INSTITUTES FOR QUANTUM SCIENCE AND TECHNOLOGY, priority 2020, dated 2026).

What was measured:
α-synuclein aggregates [1] = target: T1, α-synuclein aggregates (Mus musculus, UniProt O55042); experiment: In vivo PET imaging of mouse brain (α-synuclein fibril-inoculated mouse vs physiological saline-injected mouse); conditions: α-synuclein fibril-inoculated model mouse, intravenous injection
T1 construct: from tissue; host or cells: brain of C57/BL/6 mouse inoculated in the striatum with recombinant (E. coli) mouse α-synuclein fibrils; sections or living animal
Protocol: First, mouse α-synuclein was expressed in and extracted from E. coli as a recombinant protein, and then incubated in vitro to form insoluble α-synuclein aggregates. The α-synuclein aggregates were then inoculated into the striatum of a mouse. […] Note that the inoculation of the α-synuclein aggregates into the striatum of the mouse was carried out in the following manner. First, hair on the head of a 9-week-old C57/BL/6 male mouse which had been anesthetized with 1.5% (v/v) isoflurane was removed, and the scalp was disinfected with isodine, followed by application of xylocaine and incision in the scalp to expose the skull. Then, a hole was drilled in the skull at a position of 0.05 mm posterior to the bregma and 2 mm lateral to the midline, and 3 μl of an α-synuclein fibril solution (mouse α-synuclein fibril (4 mg/ml) in saline) was injected into a position […] ventral to the brain surface with use of a glass pipette. The scalp was then returned and sutured.
PET scanning was carried out with use of a micro PET Focus 220 animal scanner (Siemens Medical Solutions), which provided 95 slices each having a thickness of 0.851 mm (center thickness), a […]. Before the scanning, an α-synuclein fibril-inoculated mouse and a physiological saline-injected mouse (control) were each anesthetized with 1.5% (v/v) isoflurane. […]

[2] = Ex vivo imaging (autoradiography) of brain of physiological saline-injected mouse; assay type: in vivo; conditions: intravenous, brain collected 40 minutes after administration
Protocol: A physiological saline-injected mouse was anesthetized with 1.5% (v/v) isoflurane. Then, [^18F]SPAL-T-06 (28.9 MBq) was intravenously injected into the physiological saline-injected mouse. Forty minutes after the administration of [^18F]SPAL-T-06, the brain was collected and frozen. In a cryostat (HM560), frozen coronal sections each having a thickness of 20 μm and respectively including positions at 0.50 mm, −0.46 mm, −1.94 mm, −3.16 mm, and −6.64 mm from the bregma were prepared. Each section was air-dried, and then placed in contact with an imaging plate for 15 minutes in a cassette. Thereafter, autoradiographs were obtained with use of BAS-5000 (Fuji Film).

α-synuclein aggregates [3] = experiment: In vivo PET imaging of α-synuclein fibril-inoculated marmoset brain; conditions: intravenous injection
[4] = target: T2, homogenate of the brain of the DLB patient which was rich in α-synuclein lesions (Homo sapiens, UniProt P37840); experiment: In vitro binding test, homogenate of the brain of the DLB patient
T2 construct: α-synuclein aggregates formed in the brain of the DLB patient; from tissue; host or cells: post-mortem human brain: amygdala of DLB patient (sections or homogenate); cerebellum of MSA patient
Protocol: (§1) Fresh frozen tissue from the amygdala in the brain of a DLB patient and fresh frozen tissue from the frontal cortex in the brain of an AD patient were used. To each fresh frozen brain tissue, zirconia beads (ZB-20, TOMY) and a buffer solution which was 10 times the wet weight of the tissue were added. A mixture thus obtained was smashed with use of Micro Smash (MS-100R, TOMY) and then stored at −80° C. A homogenate of the brain of the DLB patient or a homogenate of the brain of the AD patient, [^18F]SPAL-T-06 (final concentration: 5 nM), and non-labeled SPAL-T-06 (final concentration: 0.01 nM to 1 μM) were mixed into a Tris-HCl buffer solution (containing 20% ethanol). Incubation was carried out at room temperature for 30 minutes, and then B/F separation (B: bound ligand, F: free ligand) was carried out by suction filtration and washing. Thereafter, radioactivity captured on a glass filter was measured with use of a gamma counter (2480WIZARD2, ParkinElmer). With regard to the concentration of each non-labeled SPAL-T-06, a test was carried out in triplicate. Results were analyzed with use of Prism 6J (GraphPad), displacement curves of the tested compounds were obtained, and then IC50 of each was calculated.

[5] = target: homogenate of the brain of the AD patient (tau aggregates or amyloid β aggregates); experiment: In vitro binding test, homogenate of the brain of the AD patient; design: species or system human; conditions: [18F]SPAL-T-06 5 nM displaced by non-labeled SPAL-T-06 0.01 nM to 1 μM; frontal cortex; room temperature 30 minutes
Protocol: as §1

[6] = target: T3, lesions caused by phosphorylated α-synuclein (Homo sapiens, UniProt P37840); experiment: In vitro autoradiography of human brain sections (DLB, MSA, healthy subject); assay type: binding; conditions: 10 nM
T3 construct: α-synuclein aggregates formed in the brain of the DLB patient; from tissue; host or cells: post-mortem human brain: amygdala of DLB patient (sections or homogenate); cerebellum of MSA patient
From the text: Postmortem human brains were obtained in autopsies carried out with respect to a DLB patient, a multiple system atrophy (MSA) patient, and a healthy subject. In a cryostat (HM560, Carl Zeiss), frozen tissue from the DLB patient and frozen tissue from the healthy subject were sliced into sections each having a thickness of 20 μm. Brain tissue from the MSA patient was fixed in 10% neutral buffered formalin, embedded in a paraffin block, and sliced into sections each having a thickness of 6 μm.
Postfixed fresh frozen sections of amygdala tissue from the brain of the DLB patient and the frontal cortex tissue from the brain of the healthy subject and deparaffinized sections of formalin-fixed paraffin-embedded cerebellum tissue from the brain of the MSA patient were used. Each brain tissue section and [^18F]SPAL-T-06 (final concentration: 10 nM) were incubated in 50 mM Tris-HCl containing 20% ethanol at room temperature for 1 hour. In order to detect specific binding, the brain tissue section was also incubated in 50 mM Tris-HCl (containing 20% ethanol) containing [^18F]SPAL-T-06 (final concentration: 10 nM) and non-labeled SPAL-T-06 (final concentration: 10 μM). Subsequently, the section was washed with 50 mM Tris-HCl (containing 20% EtOH) at 4° C. for 2 minutes. This washing was carried out twice. Thereafter, the section was rinsed with MilliQ. […]

CNc1cnc(C#C/C=C/c2nc3ccc(OCC(O)C[18F])cc3s2)cn1 (centres unmarked) [[^18F]SPAL-T-06, [^18F]-(E)-1-fluoro-3-((2-(4-(5-(methylamino)pyrazin-2-yl)but-1-en-3-yn-1-yl)benzo[d]thiazol-6-yl)oxy)propan-2-ol]
accumulation in striatum and cerebral cortex rich in α-synuclein lesions (PET) (α-synuclein aggregates [1]): clear accumulation
nonspecific accumulation in the white matter area (ex vivo autoradiography) [2]: not seen
accumulation in the caudate nucleus rich in α-synuclein lesions (PET) (α-synuclein aggregates [3]): clear accumulation
binding selectivity with respect to α-synuclein aggregates versus tau or amyloid β aggregates (homogenate binding) ([4]; DLB versus AD brain homogenate): high binding selectivity
IC50 ([4]; [18F]SPAL-T-06 5 nM displaced by non-labeled SPAL-T-06 0.01 nM to 1 μM, amygdala, room temperature 30 minutes): 1.58 nM
IC50 [5]: 10.9 nM
binding to areas rich in lesions caused by phosphorylated α-synuclein (autoradiography) ([6]; DLB amygdala and MSA cerebellum sections, 1 hour): bound to areas in the brains of the DLB patient and the MSA patient which were rich in lesions caused by phosphorylated α-synuclein
non-specific binding in gray matter and white matter of healthy subject frontal cortex (autoradiography) ([6]; section of frontal cortex of healthy subject): hardly observed
